In US12599136B2, “Substituted isophthalic acid diamides and their use as herbicides” (Bayer Aktiengesellschaft, priority 2020, dated 2026):

How the values were obtained:
Assay type in all cases: in vivo
Matricaria inodora [1] = experiment: Pre-emergence herbicidal action against MATIN; settings: visual score after 3 weeks vs untreated controls
Summary of the method: (§1)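 Visual rating at 3 weeks vs untreated pots; 0–100% scale, 100% = plants died. Treatment: aqueous WP/EC spray onto covering soil, 600–800 l/ha, 0.2% wetter, seeds in sandy loam.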

Amaranthus retroflexus [2] = experiment: Post-emergence herbicidal action against AMARE; settings: visual assessment about 3 weeks after treatment
Summary of the method: (§2)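 Weeds in sandy loam soil received a post-emergence spray at the one-leaf stage. Compounds were applied as WP or EC in water, 600 to 800 l/ha, with 0.2% wetting agent. Activity in % was judged visually after roughly 3 weeks against untreated plants.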

Matricaria inodora [3] = experiment: Post-emergence herbicidal action against MATIN; settings: visual assessment about 3 weeks after treatment
Summary of the method: as §2

Veronica persica [4] = experiment: Pre-emergence herbicidal action against VERPE
Summary of the method: as §1

Amaranthus retroflexus [5] = experiment: Pre-emergence herbicidal action against AMARE; settings: visual score after 3 weeks vs untreated controls
Summary of the method: as §1

Viola tricolor [6] = experiment: Pre-emergence herbicidal action against VIOTR
Summary of the method: as §1

Viola tricolor [7] = experiment: Post-emergence herbicidal action against VIOTR
Summary of the method: as §2

Alopecurus myosuroides [8] = experiment: Pre-emergence herbicidal action against ALOMY; settings: 80 g/ha; visual score after 3 weeks vs untreated controls
Summary of the method: as §1

Digitaria sanguinalis [9] = experiment: Post-emergence herbicidal action against DIGSA
Procedure: Seeds of monocotyledonous and dicotyledonous weed and crop plants are laid out in sandy loam soil in wood-fiber pots, covered with soil and cultivated in a greenhouse under good growth conditions. 2 to 3 weeks after sowing, the test plants are treated at the one-leaf stage. The compounds of the invention, formulated in the form of wettable powders (WP) or as emulsion concentrates (EC), are then sprayed onto the green parts of the plants in the form of an aqueous suspension or emulsion at a water application rate equivalent to 600 to 800 l/ha, with addition of 0.2% wetting agent. After the test plants have been left to stand in the greenhouse under optimal growth conditions for about 3 weeks, the action of the preparations is assessed visually in comparison to untreated controls (herbicidal action in percent (%): 100% activity=the plants have died, 0% activity=like control plants). […] The tables below illustrate, in an illustrative manner, the post-emergence herbicidal action of the compounds of the invention, the herbicidal activity being stated in percent.

Setaria viridis [10] = experiment: Pre-emergence herbicidal action against SETVI; settings: 80 g/ha
Summary of the method: as §1

Echinochloa crus-galli [11] = experiment: Pre-emergence herbicidal action against ECHCG; settings: 80 g/ha; visual score after 3 weeks vs untreated controls
Summary of the method: as §1

Veronica persica [12] = experiment: Post-emergence herbicidal action against VERPE; settings: 20 g/ha, visual assessment about 3 weeks after treatment
Summary of the method: as §2

Abutilon theophrasti [13] = experiment: Post-emergence herbicidal action against ABUTH
Summary of the method: as §2

Setaria viridis [14] = experiment: Post-emergence herbicidal action against SETVI; settings: visual assessment about 3 weeks after treatment
Summary of the method: as §2

Echinochloa crus-galli [15] = experiment: Post-emergence herbicidal action against ECHCG; settings: visual assessment about 3 weeks after treatment
Summary of the method: as §2

Alopecurus myosuroides [16] = experiment: Post-emergence herbicidal action against ALOMY
Summary of the method: as §2

Digitaria sanguinalis [17] = experiment: Pre-emergence herbicidal action against DIGSA
Summary of the method: as §1

Abutilon theophrasti [18] = experiment: Pre-emergence herbicidal action against ABUTH; settings: visual score after 3 weeks vs untreated controls
Summary of the method: as §1

Avena fatua [19] = experiment: Pre-emergence herbicidal action against AVEFA; settings: 80 g/ha; visual score after 3 weeks vs untreated controls
Summary of the method: as §1

Avena fatua [20] = experiment: Post-emergence herbicidal action against AVEFA; settings: 20 g/ha, visual assessment about 3 weeks after treatment
Summary of the method: as §2

Pharbitis purpurea = experiment: Post-emergence herbicidal action against PHBPU; settings: visual assessment about 3 weeks after treatment
Summary of the method: as §2

| SMILES | Pre-emergence action against MATIN (Matricaria inodora [1]; 80 g/ha) | Post-emergence action against AMARE in % (Amaranthus retroflexus [2]; 5 g/ha) | Post-emergence action against AMARE in % (Amaranthus retroflexus [2]; 20 g/ha) | Pre-emergence action against AMARE (Amaranthus retroflexus [5]; 80 g/ha) | Pre-emergence action against VIOTR (Viola tricolor [6]; 20 g/ha) | Pre-emergence action against VIOTR (Viola tricolor [6]; 80 g/ha) | Post-emergence action against VIOTR in % (Viola tricolor [7]; 20 g/ha) | Pre-emergence action against ALOMY (Alopecurus myosuroides [8]) | Post-emergence action against DIGSA in % (Digitaria sanguinalis [9]; 20 g/ha) | Pre-emergence action against SETVI (Setaria viridis [10]) | Pre-emergence action against ECHCG (Echinochloa crus-galli [11]) | Post-emergence action against SETVI in % (Setaria viridis [14]; 5 g/ha) | Post-emergence action against SETVI in % (Setaria viridis [14]; 20 g/ha) | Post-emergence action against ECHCG in % (Echinochloa crus-galli [15]; 20 g/ha) | Post-emergence action against ALOMY (Alopecurus myosuroides [16]; 20 g/ha) | Pre-emergence action against DIGSA (Digitaria sanguinalis [17]; 20 g/ha) | Pre-emergence action against DIGSA (Digitaria sanguinalis [17]; 80 g/ha) | Pre-emergence action against ABUTH (Abutilon theophrasti [18]; 80 g/ha) | Pre-emergence action against AMARE (Amaranthus retroflexus [5]; 20 g/ha) | Post-emergence action against DIGSA in % (Digitaria sanguinalis [9]; 5 g/ha) | also measured |
| --- | --- | --- | --- | --- | --- | --- | --- | --- | --- | --- | --- | --- | --- | --- | --- | --- | --- | --- | --- | --- | --- |
| CCn1nnnc1NC(=O)c1ccc(C(F)(F)F)c(C(=O)N(C)C)c1C [Example 2-19] | 90% | 80% | 90% | 100% | 80% | 100% | 100% | 90% | 90% | 100% | 90% | 80% | 80% | 90% | 80% | 100% | 100% | 100% |  |  | Post-emergence action against MATIN in % (Matricaria inodora [3]; 20 g/ha): 80%; Pre-emergence action against VERPE (Veronica persica [4]; 80 g/ha): 90%; Post-emergence action against VIOTR in % (Viola tricolor [7]; 5 g/ha): 80%; Post-emergence action against VERPE in % (Veronica persica [12]): 80%; Post-emergence action against ABUTH (Abutilon theophrasti [13]; 20 g/ha): 100%; Pre-emergence action against ABUTH (Abutilon theophrasti [18]; 20 g/ha): 80% |
| CCN(CC)C(=O)c1c(C(F)(F)F)ccc(C(=O)Nc2nnnn2C)c1Cl [Example 1-135] | 100% | 80% | 80% | 100% | 100% | 100% | 90% | 100% | 90% | 100% | 90% |  |  | 90% | 90% |  | 100% | 100% | 100% | 90% | Pre-emergence action against MATIN (Matricaria inodora [1]; 20 g/ha): 90%; Pre-emergence action against AVEFA (Avena fatua [19]): 90%; Post-emergence action against MATIN in % (Matricaria inodora [3]; 20 g/ha): 80%; Pre-emergence action against VERPE (Veronica persica [4]; 80 g/ha): 90%; Post-emergence action against AVEFA in % (Avena fatua [20]): 80%; Post-emergence action against ABUTH (Abutilon theophrasti [13]; 5 g/ha): 80%; Post-emergence action against ABUTH (Abutilon theophrasti [13]; 20 g/ha): 90%; Post-emergence action against ECHCG in % (Echinochloa crus-galli [15]; 5 g/ha): 80%; Post-emergence action against ALOMY (Alopecurus myosuroides [16]; 5 g/ha): 80%; Pre-emergence action against ABUTH (Abutilon theophrasti [18]; 20 g/ha): 100% |
| CCn1nnnc1NC(=O)c1ccc(C(F)(F)F)c(C(=O)N(C)C2CC2)c1C [Example 2-21] | 100% | 100% | 100% | 100% | 100% | 100% | 100% |  | 90% | 100% | 100% | 80% | 100% | 90% | 90% | 100% | 100% | 100% | 100% | 80% | Pre-emergence action against MATIN (Matricaria inodora [1]; 20 g/ha): 90%; Pre-emergence action against AVEFA (Avena fatua [19]): 80%; Post-emergence action against MATIN in % (Matricaria inodora [3]; 5 g/ha): 80%; Post-emergence action against MATIN in % (Matricaria inodora [3]; 20 g/ha): 90%; Pre-emergence action against VERPE (Veronica persica [4]; 20 g/ha): 80%; Pre-emergence action against VERPE (Veronica persica [4]; 80 g/ha): 100%; Post-emergence action against VIOTR in % (Viola tricolor [7]; 5 g/ha): 100%; Post-emergence action against PHBPU in % (Pharbitis purpurea; 20 g/ha): 90%; Post-emergence action against ECHCG in % (Echinochloa crus-galli [15]; 5 g/ha): 90%; Post-emergence action against ALOMY (Alopecurus myosuroides [16]; 5 g/ha): 80% |
| CCN(CC)C(=O)c1c(C(F)(F)F)ccc(C(=O)Nc2nnnn2CC)c1Cl [Example 2-135] | 100% | 80% | 90% | 100% | 100% | 100% |  | 90% | 90% | 100% | 100% |  | 80% | 80% | 90% | 80% | 90% | 100% | 100% | 80% | Pre-emergence action against MATIN (Matricaria inodora [1]; 20 g/ha): 90%; Post-emergence action against MATIN in % (Matricaria inodora [3]; 20 g/ha): 80%; Post-emergence action against AVEFA in % (Avena fatua [20]): 80%; Pre-emergence action against ABUTH (Abutilon theophrasti [18]; 20 g/ha): 90% |
| CCN(CC)C(=O)c1c(C(F)(F)F)ccc(C(=O)Nc2nnnn2C)c1C [Example 1-31] | 100% | 90% | 90% | 100% |  | 100% | 90% | 100% | 90% | 100% | 80% | 90% | 100% | 90% | 90% | 100% | 100% | 100% | 100% | 80% | Pre-emergence action against VERPE (Veronica persica [4]; 80 g/ha): 90%; Post-emergence action against VIOTR in % (Viola tricolor [7]; 5 g/ha): 80%; Post-emergence action against AVEFA in % (Avena fatua [20]): 80%; Post-emergence action against PHBPU in % (Pharbitis purpurea; 5 g/ha): 90%; Post-emergence action against PHBPU in % (Pharbitis purpurea; 20 g/ha): 90%; Post-emergence action against ECHCG in % (Echinochloa crus-galli [15]; 5 g/ha): 90%; Post-emergence action against ALOMY (Alopecurus myosuroides [16]; 5 g/ha): 80% |
| Cc1c(C(=O)Nc2nnnn2C)ccc(C(F)(F)F)c1C(=O)N(C)C [Example 1-19] | 90% |  | 100% | 100% |  | 100% | 80% | 80% | 90% | 100% | 90% | 100% | 100% | 90% |  |  | 100% | 100% | 100% | 90% | Pre-emergence action against AVEFA (Avena fatua [19]): 80%; Post-emergence action against VERPE in % (Veronica persica [12]): 80%; Post-emergence action against ABUTH (Abutilon theophrasti [13]; 5 g/ha): 90%; Post-emergence action against ABUTH (Abutilon theophrasti [13]; 20 g/ha): 100%; Pre-emergence action against ABUTH (Abutilon theophrasti [18]; 20 g/ha): 90% |
| CCN(C(=O)c1c(C(F)(F)F)ccc(C(=O)Nc2nnnn2C)c1C)C1CC1 [Example 1-32] | 100% | 90% | 100% | 100% | 80% | 100% | 100% | 90% | 90% | 100% | 90% | 80% | 90% | 100% | 90% | 90% | 100% | 100% | 90% | 90% | Post-emergence action against VIOTR in % (Viola tricolor [7]; 5 g/ha): 100%; Post-emergence action against AVEFA in % (Avena fatua [20]): 80%; Post-emergence action against PHBPU in % (Pharbitis purpurea; 5 g/ha): 80%; Post-emergence action against PHBPU in % (Pharbitis purpurea; 20 g/ha): 90%; Post-emergence action against ECHCG in % (Echinochloa crus-galli [15]; 5 g/ha): 100%; Post-emergence action against ALOMY (Alopecurus myosuroides [16]; 5 g/ha): 80% |
